Reference: patent publication US9193673B2, “Derivatives of mesalazine, process of their preparation and their use in the treatment of intestinal inflammatory diseases” (SOFAR SPA, priority 2010, dated 2015)

Test system: DSS-induced colitis
Assay: DSS-induced colitis model
Format: in vivo
Settings: DSS 3% C57BL/6 mice
Excerpt: Experimental colitis models, such as the dextran sodium sulphate (DSS) model, are routinely available in our laboratory (1, 2). […] DSS-induced inflammation of the colon originates in the distal colon, progressing to involve the whole colon and in severe cases the caecum. In addition, the inflammation is confined to the mucosa and is generally not transmural. Furthermore, DSS-induced inflammation is not dependent on the presence of any specific intestinal bacterial flora.
Colon inflammation has been induced in C57BL/6 mice by the administration of DSS in the drinking water at concentrations of 3%, for 5 days.
Different parameters have been measured to test the efficacy of the selected compounds which are: • Clinical evaluation: daily recording weight and clinical activity (anal bleeding, presence of diarrhoea). This parameter has been quantified as percentage of body weight and DAI (Disease Activity Index) relating to anal bleeding and presence of diarrhoea. The lower the DAI is, the lower the anal bleeding is, thus better the therapeutic effect is. • Endoscopic evaluation: mice underwent endoscopy at the end of the treatment. This step is very important as most of the drugs used in human inflammatory bowel disease aim to achieve mucosal healing. • Histological colitis assessment: mice have been sacrificed at the end of the treatment, colons have been removed and histopathological analysis has been performed to assess the extent of tissue damage and recruitment of immune cells.
The therapeutic effect has been evaluated with different experimental procedures (a)-c)) representing either the active phase (a)) or the remission phase (b)-c)) of an intestinal inflammatory disease at different doses: • a) treatment of acute phase at 200 mg/kg/day • b) treatment of remission phase at 50 mg/kg/day • c) treatment of remission phase at 100 mg/kg/day […]

CCCC(=O)Oc1ccc(N)cc1C(=O)O.Cl [Compound (IV), 5-amino-2-(butyryloxy)benzoic acid]
Therapeutic efficiency (DAI, endoscopic and histological scores) (a) acute (active) phase, 200 mg/kg/day orally): comparable therapeutic efficiency
Therapeutic activity (DAI, endoscopic and histological scores) vs 5-ASA, butyric acid, and their combined administration (b) remission phase, 50 mg/kg/day orally): better therapeutic activity
Therapeutic activity (DAI, endoscopic and histological scores) vs 5-ASA, butyric acid, and their combined administration (c) remission phase, 100 mg/kg/day orally): better therapeutic activity
